Assay results: US20240409536A1, “COMPOUNDS AND METHODS FOR MODULATING SPLICING” (REMIX THERAPEUTICS INC., priority 2021, published 2024)
pIC50: −log10 of the molar value.

Experiments:
MYB mRNA [1] = assay: Splicing RT-qPCR assay, MYB canonical (CJ) and alternative (AJ) junction mRNA; assay type: cell-based; conditions: Homo sapiens, A673 or K562 cells, 24 hours; for pIC50: decrease in canonical junction mRNA; for AC50: increase in alternative junction mRNA
Summary of the method: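 Housekeeping-normalized RT-qPCR of canonical and alternative junctions in lysates of A673 or K562 cells exposed 24 h to compound (11 points, 3-fold steps, max 10 uM).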

MYB mRNA [2] = assay: Gene panel canonical junction qPCR assay, MYB CJ mRNA decrease; assay type: cell-based, human; conditions: Homo sapiens, canonical junction qPCR, read-out: MYB IC50 (decrease in CJ mRNA levels)
Summary of the method: (§1)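 A673 or K562 cells were treated with compound, and lysates underwent cDNA synthesis and qPCR with a CY5 5′-nuclease probe or primer spanning the canonical exon junction. ΔCt versus GAPDH, GUSB or PPIA was normalized to DMSO (2^(−ΔΔCt)), converted to percentage response and fitted four-parameter logistic for IC50.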

SMN2 mRNA = assay: Gene panel canonical junction qPCR assay, SMN2 CJ mRNA decrease; assay type: cell-based, human; conditions: Homo sapiens, canonical junction qPCR, read-out: SMN2 IC50 (decrease in CJ mRNA levels)
Summary of the method: as §1

Compound | pIC50 (MYB mRNA [1]) | AC50 (MYB mRNA [1]) | pIC50 (MYB mRNA [2]) | pIC50 (SMN2 mRNA)
Cc1cn2cc(NC(=O)c3ccc([C@@]45CCNCC4C5)c4nccnc34)cc(F)c2n1 (stereo in doubt) [Compound 248, 8-{3-azabicyclo[4.1.0]heptan-6-yl}-N-{8-fluoro-2-methylimidazo[1,2-a]pyridin-6-yl}quinoxaline-5-carboxamide 2,2,2-trifluoroacetate] | 6.00 to 7.00 | 100 to 1000 nM | 6.00 to 7.00 | > 7.00
Cc1cn2cc(NC(=O)c3ccc(N4CCNCC4)c4nccnc34)cc(F)c2n1 [Compound 111] | 6.00 to 7.00 | 100 to 1000 nM | 6.00 to 7.00 | > 7.00
Cc1cn2nc(NC(=O)c3ccc(C4CCNCC4)c4ccnnc34)cc(C)c2n1 [Compound 113] | 5.00 to 6.00 | 100 to 1000 nM | 5.00 to 6.00 | 6.00 to 7.00
Cn1cc2ccc(NC(=O)c3ccc(N4CCNCC4)c4ccnnc34)cc2n1 [Compound 115] | < 5.00 | > 10000 nM | < 5.00 | < 5.00
Cn1cc2c(F)cc(NC(=O)c3ccc(N4CCNCC4)c4ccnnc34)cc2n1 [Compound 116] | < 5.00 | > 10000 nM | < 5.00 | < 5.00
Cc1nc2c(F)cc(NC(=O)c3ccc(N4CCNCC4)c4ccnnc34)cc2s1 [Compound 118] | 6.00 to 7.00 | 100 to 1000 nM | 6.00 to 7.00 | > 7.00
Cc1cn2cc(NC(=O)c3ccc(N4CCNCC4)c4ccnnc34)c(C)cc2n1 [Compound 119] | 5.00 to 6.00 | 1000 to 10000 nM | 5.00 to 6.00 | > 7.00
Cc1cn2cc(NC(=O)c3ccc(N4CCNCC4)c4ccnnc34)ncc2n1 [Compound 120] | 6.00 to 7.00 | 100 to 1000 nM | 6.00 to 7.00 | > 7.00
CNC1CCN(c2ccc(C(=O)Nc3cc(F)c4nc(C)cn4c3)c3nc(OCCOC)ccc23)C1 (stereo not shown) [Compound 234] | 6.00 to 7.00 | 100 to 1000 nM | 6.00 to 7.00 | > 7.00
CN[C@@H]1CCN(c2ccc(C(=O)Nc3cc(F)c4nc(C)cn4c3)c3nnccc23)C1 [Compound 238, (R)—N-(8-fluoro-2-methylimidazo[1,2-a]pyridin-6-yl)-5-(3-(methylamino)pyrrolidin-1-yl)cinnoline-8-carboxamide] | > 7.00 | < 100 nM | > 7.00 | > 7.00
CN[C@H]1CCN(c2ccc(C(=O)Nc3cc(F)c4nc(C)cn4c3)c3nnccc23)C1 [Compound 239, (S)—N-(8-fluoro-2-methylimidazo[1,2-a]pyridin-6-yl)-5-(3-(methylamino)pyrrolidin-1-yl)cinnoline-8-carboxamide] | > 7.00 | 100 to 1000 nM | > 7.00 | > 7.00
Cc1cn2cc(NC(=O)c3ccc(C4=CCNCC4)c4nccnc34)cc(F)c2n1 [Compound 240, N-{8-fluoro-2-methylimidazo[1,2-a]pyridin-6-yl}-8-(1,2,3,6-tetrahydropyridin-4-yl)quinoxaline-5-carboxamide] | > 7.00 | 100 to 1000 nM | > 7.00 | > 7.00
Cc1cn2cc(NC(=O)c3ccc(N4CC[C@@H](N(C)C)C4)c4nccnc34)cc(F)c2n1 [Compound 242, 8-[(3R)-3-(dimethylamino)pyrrolidin-1-yl]-N-{8-fluoro-2-methylimidazo[1,2-a]pyridin-6-yl}quinoxaline-5-carboxamide] | 6.00 to 7.00 | 1000 to 10000 nM | 6.00 to 7.00 | > 7.00
COc1cnc2c(N3CC[C@@H](N(C)C)C3)ccc(C(=O)Nc3cc(F)c4nc(C)cn4c3)c2n1 [Compound 244, 8-[(3R)-3-(dimethylamino)pyrrolidin-1-yl]-N-{8-fluoro-2-methylimidazo[1,2-a]pyridin-6-yl}-3-methoxyquinoxaline-5-carboxamide] | > 7.00 | < 100 nM | > 7.00 | > 7.00
Cc1cn2cc(NC(=O)c3ccc([C@H]4CCNC4)c4nccnc34)cc(F)c2n1 [Compound 246] | 6.00 to 7.00 | 100 to 1000 nM | 6.00 to 7.00 | > 7.00
Cc1cn2cc(NC(=O)c3ccc(N4CCN[C@@H](C(C)C)C4)c4nccnc34)cc(F)c2n1 [Compound 250, N-{8-fluoro-2-methylimidazo[1,2-a]pyridin-6-yl}-8-[(3S)-3-isopropylpiperazin-1-yl]quinoxaline-5-carboxamide] | 6.00 to 7.00 | 1000 to 10000 nM | 6.00 to 7.00 | > 7.00
Cc1cn2cc(NC(=O)c3ccc(N4CCN[C@@H](C5CC5)C4)c4nccnc34)cc(F)c2n1 [Compound 252, 8-[(3S)-3-cyclopropylpiperazin-1-yl]-N-{8-fluoro-2-methylimidazo[1,2-a]pyridin-6-yl}quinoxaline-5-carboxamide] | 6.00 to 7.00 | 100 to 1000 nM | 6.00 to 7.00 | > 7.00
Cc1cn2cc(NC(=O)c3ccc(N4CCN[C@H](C5CC5)C4)c4nccnc34)cc(F)c2n1 [Compound 253, 8-[(3R)-3-cyclopropylpiperazin-1-yl]-N-{8-fluoro-2-methylimidazo[1,2-a]pyridin-6-yl}quinoxaline-5-carboxamide] | > 7.00 | < 100 nM | > 7.00 | > 7.00
Cc1cn2cc(NC(=O)c3ccc(N4CCN5CCOC[C@@H]5C4)c4nccnc34)cc(F)c2n1 [Compound 255, (S)—N-(8-fluoro-2-methylimidazo[1,2-a]pyridin-6-yl)-8-(hexahydropyrazino[2,1-c][1,4]oxazin-8(1H)-yl)quinoxaline-5-carboxamide] | 6.00 to 7.00 | 100 to 1000 nM | 6.00 to 7.00 | 6.00 to 7.00
Cc1cn2cc(NC(=O)c3ccc(N4CCN5CCOC[C@H]5C4)c4nccnc34)cc(F)c2n1 [Compound 256, (R)—N-(8-fluoro-2-methylimidazo[1,2-a]pyridin-6-yl)-8-(hexahydropyrazino[2,1-c][1,4]oxazin-8(1H)-yl)quinoxaline-5-carboxamide] | 5.00 to 6.00 | 1000 to 10000 nM | 5.00 to 6.00 | 5.00 to 6.00
Cc1cn2cc(NC(=O)c3ccc(N4CC(C)NC(C)C4)c4nc(C)c(C)nc34)cc(F)c2n1 (stereo not shown) [Compound 257] | 6.00 to 7.00 | 1000 to 10000 nM | 6.00 to 7.00 | > 7.00
Cc1cn2cc(NC(=O)c3ccc(N4CCC(NC5CC5)CC4)c4nccnc34)cc(F)c2n1 [Compound 258, 8-(4-(cyclopropylamino)piperidin-1-yl)-N-(8-fluoro-2-methylimidazo[1,2-a]pyridin-6-yl)quinoxaline-5-carboxamide] | 6.00 to 7.00 | 100 to 1000 nM | 6.00 to 7.00 | > 7.00
Cc1cn2cc(NC(=O)c3ccc(N4CCC(NC5CC5)CC4)c4ccnnc34)cc(F)c2n1 [Compound 259, 5-[4-(cyclopropylamino)piperidin-1-yl]-N-{8-fluoro-2-methylimidazo[1,2-a]pyridin-6-yl} cinnoline-8-carboxamide] | > 7.00 | < 100 nM | > 7.00 | > 7.00
COc1nc2c(N3C[C@@H](C)N[C@@H](C)C3)ccc(C(=O)Nc3cc(F)c4nc(C)cn4c3)c2nc1C [Compound 260, 8-((3R,5S)-3,5-dimethylpiperazin-1-yl)-N-(8-fluoro-2-methylimidazo[1,2-a]pyridin-6-yl)-2-methoxy-3-methylquinoxaline-5-carboxamide; 2,2,2-trifluoroacetate] | 6.00 to 7.00 | 100 to 1000 nM | 6.00 to 7.00 | > 7.00
Cc1cn2cc(NC(=O)c3c(F)cc(N4C[C@@H](C)N[C@@H](C)C4)c4nccnc34)cc(F)c2n1 [Compound 261, cis-8-[(3R,5S)-3,5-dimethylpiperazin-1-yl]-6-fluoro-N-{8-fluoro-2-methylimidazo[1,2-a]pyridin-6-yl}quinoxaline-5-carboxamide] | > 7.00 | < 100 nM | > 7.00 | > 7.00
Cc1cn2cc(NC(=O)c3ccc(N4C5CNCC54)c4nccnc34)cc(F)c2n1 (stereo not shown) [Compound 262, 8-{3,6-diazabicyclo[3.1.0]hexan-6-yl}-N-{8-fluoro-2-methylimidazo[1,2-a]pyridin-6-yl}quinoxaline-5-carboxamide] | 6.00 to 7.00 | 100 to 1000 nM | 6.00 to 7.00 | > 7.00
Cc1cn2cc(NC(=O)c3ccc(N4C[C@@H](C)N[C@@H](C5CC5)C4)c4nccnc34)cc(F)c2n1 [Compound 266, 8-((3S,5R)-3-cyclopropyl-5-methylpiperazin-1-yl)-N-(8-fluoro-2-methylimidazo[1,2-a]pyridin-6-yl)quinoxaline-5-carboxamide] | > 7.00 | < 100 nM | > 7.00 | > 7.00
Cc1cn2cc(NC(=O)c3ccc(N4C[C@@H](C5CC5)N[C@@H](C)C4)c4nccnc34)cc(F)c2n1 [Compound 267, 8-((3R,5S)-3-cyclopropyl-5-methylpiperazin-1-yl)-N-(8-fluoro-2-methylimidazo[1,2-a]pyridin-6-yl)quinoxaline-5-carboxamide] | 6.00 to 7.00 | 100 to 1000 nM | 6.00 to 7.00 | > 7.00
